{
  "source": "patent US7956086B2",
  "about": "“Methods for the formulation and manufacture of artesunic acid for injection” (priority 2006, dated 2011)",
  "key": {"[1]": {"experiment": "Storage stability of bulk artesunic acid", "assay_type": "physicochemical", "conditions": "20 months at 25° C.", "method": "Six thousand dry-filled vials of formulated artesunate for clinical use have been packaged. One thousand of the vials have been reserved for long-term stability testing under various conditions, including elevated temperatures and humidities, to test the integrity and durability of the packaging system. As packaged for clinical use, 20 ml vials have been dry-filled with 110 mg of ethylene oxide sterilized artesunate, stoppered, and sealed.\nThe sterilized bulk drug of the invention has been tested and is still undergoing stability studies. […] The stability studies are still ongoing."}, "[2]": {"conditions": "in vivo", "description": "Patients were given a single dose of 1-4 milligrams per kilogram body weight in the form of an injection through an IV catheter (a tube with a needle attached) once a day for 3 days in a row."}, "[3]": {"conditions": "stored under nitrogen @ 25° C., studies at Knoll; cited from earlier work"}},
  "data": [
    {"molecule": "C[C@H]1[C@H](OC(=O)CCC(=O)O)O[C@@H]2O[C@@]3(C)CC[C@H]4[C@H](C)CC[C@@H]1[C@@]24OO3", "note": "(relative stereo) [artesunic acid, butanedioic Acid, [3R-(3α,5a,6,8a,9α,10α,12,12a R*)]-mono(decahydro-3,6,9-trimethyl-3,12-epoxy-12H-pyrano[4,3-j]-1,2-benzodioxepin-10-yl)ester]", "values": [
      {"measurement": "degradation of sterilized bulk drug on storage", "setting": "[1]", "result": "no evidence of degradation"},
      {"measurement": "adverse effects", "setting": "[2]", "result": "no adverse effects"},
      {"measurement": "stability of bulk artesunic acid", "setting": "[3]", "result": "at least two years stability"}
    ]}
  ]
}
